Measured values from patent publication US20230413824A1, “AGROCHEMICAL COMPOSITION COMPRISING 3-SUBSTITUTED PHENYLAMIDINE COMPOUNDS AND USE THEREOF” (PI INDUSTRIES LIMITED, priority 2020, published 2023).
Where two headings read alike, the source gives them in different places.

Columns and labels:
Assay type in all cases: in vivo
Pyricularia oryzae = test: whole plant or invertebrate; conditions: for pest or weed control at 0.05 ppm / pest or weed control at 0.1 ppm: Pyricularia oryzae, read-out: Observed Efficacy; for Observed Efficacy: single compound, preventive spray, rice
Alternaria solani = Alternaria solani test in tomato (preventive, glasshouse); conditions: for pest or weed control at 0.05 ppm / pest or weed control at 0.1 ppm: Alternaria solani
Erysiphe cichoracearum = Erysiphe cichoracearum test in cucumber (preventive, glasshouse); conditions: single compound; for pest or weed control at 0.05 ppm / pest or weed control at 0.1 ppm: Golovinomyces cichoracearum, read-out: Observed Efficacy (%)
Phakopsora pachyrhizi = Phakopsora pachyrhizi test in soybean (preventive, glasshouse); conditions: single compound; for pest or weed control at 0.1 ppm / pest or weed control at 0.05 ppm: Phakopsora pachyrhizi, read-out: Observed Efficacy (%)
Botrytis cinerea = Botrytis cinerea test in tomato (preventive, glasshouse); conditions: single compound
[1] = single compound, 0.05 ppm, preventive spray, read-out: Observed Efficacy (%)
[2] = single compound, 0.1 ppm, preventive spray, read-out: Observed Efficacy (%)
[3] = single compound, Conc. 0.05 ppm, preventive spray, read-out: Observed Efficacy
[4] = single compound, Conc. 0.1 ppm, preventive spray, read-out: Observed Efficacy
[5] = Table B3, single compound, Conc. 0.05 ppm, preventive
[6] = Table B3, single compound, Conc. 0.1 ppm, preventive
[7] = single compound, 0.05 ppm, preventive
[8] = single compound, 0.1 ppm, preventive
[9] = 0.05 ppm, preventive spray on cucumber
[10] = 0.1 ppm, preventive spray on cucumber
[11] = 0.1 ppm, preventive spray on soybean
[12] = Conc. 0.1 ppm, soybean, preventive, Table D4
[13] = Botrytis cinerea, Conc. 0.05 ppm, preventive spray on tomato, % control vs untreated, read-out: Observed Efficacy (%)
[14] = Table F4, Conc. 0.05 ppm, Botrytis cinerea in tomato, preventive
[15] = Table F4, Conc. 0.1 ppm, Botrytis cinerea in tomato, preventive, read-out: Observed Efficacy (%)
[16] = Table F4, Conc. 0.1 ppm, Botrytis cinerea in tomato, preventive
[17] = Table F5, Conc. 0.05 ppm, Botrytis cinerea in tomato, preventive
[18] = Table F5, Conc. 0.1 ppm, Botrytis cinerea in tomato, preventive
[19] = Table B4, single compound, Conc. 0.05 ppm, preventive
[20] = Table B4, single compound, Conc. 0.1 ppm, preventive
[21] = 0.05 ppm, preventive spray on soybean
[22] = Conc. 0.05 ppm, soybean, preventive, Table D4
[23] = Conc. 0.1 ppm, soybean, preventive, Table D5
[24] = Botrytis cinerea, Conc. 0.1 ppm, preventive spray on tomato, % control vs untreated, read-out: Observed Efficacy (%)
[25] = single compound, 0.05 ppm, preventive spray
[26] = single compound, 0.1 ppm, preventive spray
[27] = single compound, Conc. 0.1 ppm, preventive spray
[28] = Conc. 0.05 ppm, preventive spray on tomato, % control vs untreated
[29] = Conc. 0.1 ppm, preventive spray on tomato, % control vs untreated
[30] = Conc. 0.05 ppm, soybean, preventive, Table D5

| Molecule | pest or weed control at 0.05 ppm (Pyricularia oryzae) [%] | pest or weed control at 0.1 ppm (Pyricularia oryzae) [%] | pest or weed control at 0.05 ppm (Alternaria solani; [1]) [%] | pest or weed control at 0.1 ppm (Alternaria solani; [2]) [%] | pest or weed control at 0.05 ppm (Alternaria solani; [3]) [%] | pest or weed control at 0.1 ppm (Alternaria solani; [4]) [%] | Observed Efficacy (%) (Alternaria solani; [5]) | Observed Efficacy (%) (Alternaria solani; [6]) | Observed Efficacy (%) (Alternaria solani; [7]) | Observed Efficacy (%) (Alternaria solani; [8]) | pest or weed control at 0.1 ppm (Erysiphe cichoracearum; 0.1 ppm, cucumber, preventive) [%] | Observed Efficacy (%) (Erysiphe cichoracearum; [9]) | Observed Efficacy (%) (Erysiphe cichoracearum; [10]) | pest or weed control at 0.1 ppm (Phakopsora pachyrhizi; [11]) [%] | Observed Efficacy (%) (Phakopsora pachyrhizi; [12]) | pest or weed control at 0.05 ppm (Botrytis cinerea; [13]) [%] | Observed Efficacy (%) (Botrytis cinerea; [14]) | Observed Efficacy (%) (Botrytis cinerea; [16]) | Observed Efficacy (%) (Alternaria solani; [19]) | Observed Efficacy (%) (Alternaria solani; [20]) | further results |
| --- | --- | --- | --- | --- | --- | --- | --- | --- | --- | --- | --- | --- | --- | --- | --- | --- | --- | --- | --- | --- | --- |
| O=C(Nc1ccccc1-c1ccc(Cl)cc1)c1cccnc1Cl [Boscalid, boscalid] | 24 | 37 | 13 | 26 | 13 | 26 | 13 | 26 | 13 | 26 | 32 | 24 | 32 | 32 | 32 | 38 | 38 |  |  |  | pest or weed control at 0.05 ppm (Erysiphe cichoracearum; 0.05 ppm, cucumber, preventive): 24%; pest or weed control at 0.1 ppm (Botrytis cinerea; [15]): 52% |
| N#Cc1sc2c(=O)c3ccccc3c(=O)c=2sc1C#N [Dithionon] |  |  |  |  |  |  | 21 | 26 |  |  |  |  |  |  |  |  | 38 | 45 |  |  | Observed Efficacy (%) (Botrytis cinerea; [17]): 38%; Observed Efficacy (%) (Botrytis cinerea; [18]): 45% |
| CC1CC(C)(C)c2c(F)ccc(NC(=O)c3cn(C)nc3C(F)F)c21 (stereo not drawn) [Fluindapyr, 3-(difluoromethyl)-N-(7-fluoro-1,1,3-trimethyl-2,3-dihydro-1H-inden-4-yl)-1-methyl-1H-pyrazole-4-carboxamide] | 11 |  | 14 | 29 |  |  | 14 | 29 | 14 | 29 | 38 | 29 | 38 | 30 | 30 | 27 | 27 | 41 | 14 | 29 | pest or weed control at 0.05 ppm (Erysiphe cichoracearum; 0.05 ppm, cucumber, preventive): 29%; pest or weed control at 0.05 ppm (Phakopsora pachyrhizi; [21]): 20%; Observed Efficacy (%) (Phakopsora pachyrhizi; [22]): 20%; Observed Efficacy (%) (Phakopsora pachyrhizi; [23]): 30%; pest or weed control at 0.1 ppm (Botrytis cinerea; [24]): 41%; Observed Efficacy (%) (Botrytis cinerea; [17]): 27%; Observed Efficacy (%) (Botrytis cinerea; [18]): 41% |
| CC(O)(Cn1cncn1)c1ccc(Oc2ccc(Cl)cc2)cc1C(F)(F)F (stereo not drawn) [Mefentrifluconazole, mefentrifluconazole] |  |  |  |  |  |  | 12 | 26 | 12 | 26 |  | 21 | 24 |  |  |  | 31 | 38 | 12 | 26 | Observed Efficacy (Pyricularia oryzae; Conc. 0.05 ppm): 21%; Observed Efficacy (Pyricularia oryzae; Conc. 0.1 ppm): 24%; Observed Efficacy (%) (Alternaria solani; [25]): 12%; Observed Efficacy (%) (Alternaria solani; [26]): 26%; Observed Efficacy (Alternaria solani; single compound, Conc. 0.05 ppm, preventive spray): 12%; Observed Efficacy (Alternaria solani; [27]): 26%; Observed Efficacy (%) (Erysiphe cichoracearum; 0.1 ppm, cucumber, preventive): 24%; Observed Efficacy (%) (Botrytis cinerea; [28]): 31%; Observed Efficacy (%) (Botrytis cinerea; [29]): 38% |
| CNC(=O)/C(=N/OC)c1ccccc1Oc1ccccc1 [Metaminostorbin] |  |  |  |  |  |  |  |  |  |  |  |  |  |  |  |  |  |  |  |  | Observed Efficacy (%) (Phakopsora pachyrhizi; [21]): 45%; Observed Efficacy (%) (Phakopsora pachyrhizi; [11]): 56%; Observed Efficacy (%) (Botrytis cinerea; [28]): 28%; Observed Efficacy (%) (Botrytis cinerea; [29]): 40% |
| OC(Cc1ccccc1Cl)(Cn1nc[nH]c1=S)C1(Cl)CC1 (stereo not drawn) [Prothioconazole, prothioconazole] | 17 | 33 | 20 | 31 | 20 | 31 | 20 | 31 | 20 | 31 |  |  |  |  |  | 36 | 36 | 44 | 20 | 31 | pest or weed control at 0.01 ppm (Botrytis cinerea; Botrytis cinerea, Conc. 0.01 ppm, preventive spray on tomato, % control vs untreated, read-out: Observed Efficacy (%)): 44%; pest or weed control at 0.1 ppm (Botrytis cinerea; [24]): 44% |
| COC(=O)N(OC)c1ccccc1COc1ccn(-c2ccc(Cl)cc2)n1 [Pyraclostrobin, pyraclostrobin] | 16 | 24 | 21 | 28 | 21 | 28 |  | 28 |  |  | 24 |  | 24 |  |  |  |  |  |  |  | pest or weed control at 0.05 ppm (Erysiphe cichoracearum; [9]): 21%; pest or weed control at 0.05 ppm (Botrytis cinerea; Table F4, Conc. 0.05 ppm, Botrytis cinerea in tomato, preventive, read-out: Observed Efficacy (%)): 38%; pest or weed control at 0.1 ppm (Botrytis cinerea; [15]): 43% |
| CC(C)(C)C(O)(CCc1ccc(Cl)cc1)Cn1cncn1 (stereo not drawn) [Tebuconazole, tebuconazole] | 17 | 36 | 34 | 54 | 34 | 54 | 34 | 54 | 34 | 54 |  |  |  | 44 | 44 | 35 |  |  | 34 |  | pest or weed control at 0.05 ppm (Erysiphe cichoracearum; [9]): 29%; pest or weed control at 0.05 ppm (Phakopsora pachyrhizi; [21]): 38%; Observed Efficacy (%) (Phakopsora pachyrhizi; [22]): 38%; Observed Efficacy (%) (Phakopsora pachyrhizi; [30]): 38%; Observed Efficacy (%) (Phakopsora pachyrhizi; [23]): 44%; pest or weed control at 0.1 ppm (Botrytis cinerea; [24]): 38% |
| mancozeb |  |  |  |  |  |  | 14 | 16 | 14 | 16 |  | 24 | 29 |  | 15 |  | 19 | 24 | 14 | 16 | Observed Efficacy (%) (Alternaria solani; [25]): 14%; Observed Efficacy (%) (Alternaria solani; [26]): 16%; Observed Efficacy (Alternaria solani; [27]): 16%; Observed Efficacy (%) (Erysiphe cichoracearum; 0.05 ppm, cucumber, preventive): 24%; Observed Efficacy (%) (Erysiphe cichoracearum; 0.1 ppm, cucumber, preventive): 29%; Observed Efficacy (%) (Phakopsora pachyrhizi; [21]): 12%; Observed Efficacy (%) (Phakopsora pachyrhizi; [11]): 15%; Observed Efficacy (%) (Phakopsora pachyrhizi; [22]): 12%; Observed Efficacy (%) (Phakopsora pachyrhizi; [30]): 12%; Observed Efficacy (%) (Phakopsora pachyrhizi; [23]): 15%; Observed Efficacy (%) (Botrytis cinerea; [28]): 19%; Observed Efficacy (%) (Botrytis cinerea; [29]): 24% |
